Values quoted from earlier work, collected in US10918627B2, “Convergent and enantioselective total synthesis of Communesin analogs” (Massachusetts Institute of Technology, priority 2016, dated 2021).
≈ marks a conversion by molar mass, not a printed value.

Legend:
[1] = tested on: third instar larvae of silkworms; conditions: Hayashi 2004
[2] = tested on: bradycardia caused by astemidazole; conditions: at different concentrations, Fan 2015
[3] = Fan 2015
[4] = tested on: cardiovascular vessels; conditions: Fan 2015
[5] = tested on: mouse P-388 lymphocytic leukemia cells; conditions: cultured mouse P-388 lymphocytic leukemia cells; Numata 1993
[6] = tested on: human leukemia cell lines; conditions: array of human leukemia cell lines; Jadulco 2004
[7] = tested on: brine shrimp Artemia salina; conditions: Jadulco 2004

| Compound | insecticidal activity (comparative, in words) [1] | mitigative effect on bradycardia [2] | vasculogenetic activity [3] | promotion of the function of cardiovascular vessels [4] | ED50 cytotoxicity [5] | anti-proliferative activity [6] | LD50 toxicity [7] | LD50 insecticidal ([1]; oral administration) |
| --- | --- | --- | --- | --- | --- | --- | --- | --- |
| Communesin E [Compound 3] | lower insecticidal activities | – | – | – | – | – | – | – |
| CCC[C@H](O)CC(=O)N1CC[C@@]23c4ccccc4N[C@@H]4N(C)c5cccc6c5[C@@]42CCN([C@@H]13)[C@@H]6[C@H]1OC1(C)C [Compound 9, communesin I] | – | significant mitigative effect | moderate vasculogenetic activity | moderately promote | – | – | – | – |
| C/C=C/C=C/C(=O)N1CC[C@@]23c4ccccc4N[C@@H]4N(C)c5cccc6c5[C@@]42CCN([C@@H]13)[C@@H]6[C@H]1OC1(C)C [Compound 4, Communesin B] | most active | significant mitigative effect | – | – | 0.45 µg/mL (≈ 0.885 µM) | moderate anti-proliferative activity | 0.30 µg/mL | 5 μg/g of diet |
| CC(=O)N1CC[C@@]23c4ccccc4N[C@@H]4N(C)c5cccc6c5[C@@]42CCN([C@@H]6C=C(C)C)[C@@H]13 [Compound 1, (−)-Communesin F] | lower insecticidal activities | – | – | – | – | – | – | – |
| C/C=C/C=C/C(=O)N1CC[C@@]23c4ccccc4N[C@@H]4N(C=O)c5cccc6c5[C@@]42CCN([C@@H]13)[C@@H]6[C@H]1OC1(C)C [Compound 6, communesin D] | lower insecticidal activities | – | – | – | – | moderate anti-proliferative activity | 0.57 µg/mL | – |
| CC(=O)N1CC[C@@]23c4ccccc4N[C@@H]4N(C)c5cccc6c5[C@@]42CCN([C@@H]13)[C@@H]6[C@H]1OC1(C)C [Compound 2, Communesin A] | lower insecticidal activities | significant mitigative effect | moderate vasculogenetic activity | moderately promote | 3.5 µg/mL (≈ 7.67 µM) | – | – | – |
| C/C=C/C=C/C(=O)N1CC[C@@]23c4ccccc4N[C@@H]4Nc5cccc6c5[C@@]42CCN([C@@H]13)[C@@H]6[C@H]1OC1(C)C [Compound 5, communesin C] | – | – | – | – | – | moderate anti-proliferative activity | 1.96 µg/mL | – |
